# Assay results published in patent US20260215426A1, “HERBICIDAL COMPOSITIONS” (SYNGENTA CROP PROTECTION AG, priority 2022, published 2026).
# Experiments:
# Assay type in all cases: in vivo
# Setaria faberi (SETFA) = assay: Post-emergence glasshouse efficacy against Setaria faberi; conditions: 14 days, alone 3.75 g/Ha
# Source text: (§1) When active ingredients are combined, the activity to be expected (E) for any given active ingredient combination obeys the so-called Colby Formula and can be calculated as follows (Colby, S. R., Calculating synergistic and antagonistic responses of herbicide combination, Weeds, Vol. 15, pages 20-22; 1967): • ppm=milligrams of active ingredient (a.i.) per liter • X=% action by first active ingredient using p ppm of the active ingredient • Y=% action by second active ingredient sing q ppm of the active ingredient.
# (§2) According to Colby, the expected action of active ingredients A+B using p+q ppm of active ingredient is represented by the following formula: […]
# If the action actually observed (O) is greater than the expected action E then the action of the combination is super-additive, i.e. there is a synergistic effect. In mathematical terms, synergism corresponds to a positive value for the difference of (O-E). In the case of purely complementary addition of activities (expected activity), said difference (O-E) is zero. A negative value of said difference (O-E) signals a loss of activity compared to the expected activity. […]
# [1] = system: Amaranthus palmeri (AMAPA); assay: Post-emergence glasshouse efficacy against Amaranthus palmeri; conditions: 7-8 true leaves, 14 days
# Source text: as §1, §2
# (§3) If the action actually observed (O) is greater than the expected action E then the action of the combination is super-additive, i.e. there is a synergistic effect. In mathematical terms, synergism corresponds to a positive value for the difference of (O-E). In the case of purely complementary addition of activities (expected activity), said difference (O-E) is zero. A negative value of said difference (O-E) signals a loss of activity compared to the expected activity.
# (§4) Seeds of a variety of test species are sown in standard soil in pots (Echinochloa crus-galli (ECHCG), Conyza canadensis (ERICA), Amaranthus palmeri (AMAPA), Alopecurus myosuroides (ALOMY), Lolium perenne (LOLPE), and Setaria faberi (SETFA)), and cultivated under controlled conditions in a glasshouse (at 24/16° C., day/night; 14 hours light; 65% humidity), the plants are sprayed with an aqueous spray solution derived from the dissolution of the test compound or composition in acetone and IF50 (11.12% Emulsogen EL360 TM+44.44% N-methylpyrrolidone+44.44% Dowanol DPM glycol ether) which was then diluted to the required concentration using 0.2% Genapol XO80 (CAS No. 9043-30-5) in water as the diluent. Test compounds or compositions are applied at the rates stated. The test plants are then grown in a glasshouse under controlled conditions in a glasshouse (at 24/16° C., day/night; 14 hours light; 65% humidity) and watered twice daily. After 14 days, the test is evaluated for the percentage damage caused to the plant (100=total damage to plant; 0=no damage to plant), and the result are shown below in table B1 to B6.
# [2] = system: Echinochloa crus-galli (ECHCG); assay: Post-emergence glasshouse efficacy against Echinochloa crus-galli; conditions: 4 true leaves, 14 days
# Source text: as §1, §2, §3, §4
# Lolium perenne (LOLPE) = assay: Post-emergence glasshouse efficacy against Lolium perenne; conditions: 14 days
# Source text: as §1, §2, §3, §4
# [3] = system: Conyza canadensis (ERICA); assay: Post-emergence glasshouse efficacy against Conyza canadensis; conditions: 8 cm rosette, 14 days
# Source text: as §1, §2, §3, §4
# [4] = system: Alopecurus myosuroides (ALOMY); assay: Post-emergence glasshouse efficacy against Alopecurus myosuroides; conditions: 14 days
# Source text: as §1, §2, §3, §4
compound,measurement,setting,value
CCOC(=O)C1(C)CC(c2cc(-n3c(=O)cc(C(F)(F)F)n(C)c3=O)c(F)cc2Cl)=NO1 (stereo not drawn) [Compound (Ia)],inhibition at 3.75 g/ha,"Setaria faberi (SETFA); Setaria faberi, 336 h, read-out: Observed Activity (%)",67.5%
same,inhibition at 0.9375 g/ha,"[1]; Amaranthus palmeri, 336 h, alone 0.9375 g/Ha, read-out: Observed Activity (%)",0%
same,inhibition at 1.875 g/ha,"[1]; Amaranthus palmeri, 336 h, alone 1.875 g/Ha, read-out: Observed Activity (%)",0%
same,inhibition at 3.75 g/ha,"[1]; Amaranthus palmeri, 336 h, alone 3.75 g/Ha, read-out: Observed Activity (%)",36.7%
same,inhibition at 1.875 g/ha,"[2]; Echinochloa crus-galli, 336 h, alone 1.875 g/Ha, read-out: Observed Activity (%)",6.7%
same,inhibition at 3.75 g/ha,"[2]; Echinochloa crus-galli, 336 h, alone 3.75 g/Ha, read-out: Observed Activity (%)",29.3%
same,inhibition at 7.5 g/ha,"[2]; Echinochloa crus-galli, 336 h, alone 7.5 g/Ha, read-out: Observed Activity (%)",73.3%
same,inhibition at 3.75 g/ha,"Lolium perenne (LOLPE); Lolium perenne, 336 h, alone 3.75 g/Ha, read-out: Observed Activity (%)",12.5%
same,inhibition at 7.5 g/ha,"Lolium perenne (LOLPE); Lolium perenne, 336 h, alone 7.5 g/Ha, read-out: Observed Activity (%)",42.5%
same,inhibition at 15 g/ha,"Lolium perenne (LOLPE); Lolium perenne, 336 h, alone 15.0 g/Ha, read-out: Observed Activity (%)",50%
same,inhibition at 30 g/ha,"Lolium perenne (LOLPE); Lolium perenne, 336 h, alone 30.0 g/Ha, read-out: Observed Activity (%)",93.5%
same,inhibition at 1.875 g/ha,"[3]; Erigeron canadensis, 336 h, alone 1.875 g/Ha, read-out: Observed Activity (%)",20%
same,inhibition at 3.75 g/ha,"[3]; Erigeron canadensis, 336 h, alone 3.75 g/Ha, read-out: Observed Activity (%)",21.7%
same,inhibition at 7.5 g/ha,"[3]; Erigeron canadensis, 336 h, alone 7.5 g/Ha, read-out: Observed Activity (%)",48.3%
same,inhibition at 30 g/ha,"[4]; Alopecurus myosuroides, 336 h, alone 30.0 g/Ha, read-out: Observed Activity (%)",67.5%
same,inhibition at 60 g/ha,"[4]; Alopecurus myosuroides, 336 h, alone 60.0 g/Ha, read-out: Observed Activity (%)",97.5%
bicyclopyrone,Observed Activity (%),Setaria faberi (SETFA),22.5%
same,Observed Activity (%),[1]; alone 3.75 g/Ha,0.0%
same,Observed Activity (%),[1]; alone 7.5 g/Ha,30.0%
same,Observed Activity (%),[1]; alone 15.0 g/Ha,45.0%
same,Observed Activity (%),[1]; alone 30.0 g/Ha,18.3%
same,Observed Activity (%),[2]; alone 3.75 g/Ha,21.7%
same,Observed Activity (%),[2]; alone 7.5 g/Ha,46.7%
same,Observed Activity (%),[2]; alone 15.0 g/Ha,56.7%
same,Observed Activity (%),[2]; alone 30.0 g/Ha,61.7%
same,Observed Activity (%),[2]; alone 60.0 g/Ha,63.3%
same,Observed Activity (%),Lolium perenne (LOLPE); alone 3.75 g/Ha,0.0%
same,Observed Activity (%),Lolium perenne (LOLPE); alone 7.5 g/Ha,10.0%
same,Observed Activity (%),Lolium perenne (LOLPE); alone 15.0 g/Ha,25.0%
same,Observed Activity (%),Lolium perenne (LOLPE); alone 30.0 g/Ha,47.5%
same,Observed Activity (%),[3]; alone 15.0 g/Ha,65.0%
same,Observed Activity (%),[3]; alone 30.0 g/Ha,71.7%
same,Observed Activity (%),[3]; alone 60.0 g/Ha,70.0%
same,Observed Activity (%),[4]; alone 7.5 g/Ha,47.5%
same,Observed Activity (%),[4]; alone 15.0 g/Ha,60.0%
same,Observed Activity (%),[4]; alone 30.0 g/Ha,60.0%
